Experimental data as given in patent US9956220B2, “Imidazo-pyridazine derivatives as casein kinase 1 δ/ϵ inhibitors” (Bristol-Myers Squibb Company, priority 2014, dated 2018).

Tests used:
[1] = molecular target: CK1ϵ (Homo sapiens, UniProt P49674); experiment: CK1ϵ kinase assay (Caliper LABCHIP electrophoretic separation of fluoresceinated peptide substrate and product); assay type: biochemical; settings: 200 pM CK1ϵ, 50 μM ATP, 1.5 μM peptide substrate, 22 hours at room temperature; read-out: CK1ε (IC50)
CK1ϵ, sequence (P49674 whole entry): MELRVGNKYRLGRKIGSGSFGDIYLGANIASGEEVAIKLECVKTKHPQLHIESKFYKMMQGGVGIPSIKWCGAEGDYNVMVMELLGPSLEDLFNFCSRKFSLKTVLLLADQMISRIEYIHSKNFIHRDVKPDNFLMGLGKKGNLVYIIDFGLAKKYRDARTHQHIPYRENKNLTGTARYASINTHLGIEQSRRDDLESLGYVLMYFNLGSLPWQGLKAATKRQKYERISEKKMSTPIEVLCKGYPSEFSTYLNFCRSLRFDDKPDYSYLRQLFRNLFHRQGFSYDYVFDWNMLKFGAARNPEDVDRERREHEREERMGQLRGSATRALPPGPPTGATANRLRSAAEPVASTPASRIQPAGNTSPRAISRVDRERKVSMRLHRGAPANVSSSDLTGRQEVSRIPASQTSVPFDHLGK
Procedure: (§1) CK1ϵ and CK1δ Kinase Assays
(§2) The kinase assay was performed in V-bottom 384-well plates.
(§3) The reaction was incubated at room temperature for 22 hours and terminated by adding 45 μl of 35 mM EDTA to each sample. The reaction mixture was analyzed on the Caliper LABCHIP®3000 (Caliper, Hopkinton, Mass.) by electrophoretic separation of the unphosphorylated substrate and phosphorylated product. […] Compounds were dissolved at 10 mM in dimethylsulfoxide (DMSO) and evaluated at eleven concentrations. IC50 values were derived by non-linear regression analysis.

[2] = molecular target: CK1δ (Homo sapiens, UniProt P48730); experiment: CK1δ kinase assay (Caliper LABCHIP electrophoretic separation of fluoresceinated peptide substrate and product); assay type: biochemical; settings: 200 pM CK1δ, 50 μM ATP, 1.5 μM peptide substrate, 22 hours at room temperature
CK1δ, sequence (P48730 whole entry): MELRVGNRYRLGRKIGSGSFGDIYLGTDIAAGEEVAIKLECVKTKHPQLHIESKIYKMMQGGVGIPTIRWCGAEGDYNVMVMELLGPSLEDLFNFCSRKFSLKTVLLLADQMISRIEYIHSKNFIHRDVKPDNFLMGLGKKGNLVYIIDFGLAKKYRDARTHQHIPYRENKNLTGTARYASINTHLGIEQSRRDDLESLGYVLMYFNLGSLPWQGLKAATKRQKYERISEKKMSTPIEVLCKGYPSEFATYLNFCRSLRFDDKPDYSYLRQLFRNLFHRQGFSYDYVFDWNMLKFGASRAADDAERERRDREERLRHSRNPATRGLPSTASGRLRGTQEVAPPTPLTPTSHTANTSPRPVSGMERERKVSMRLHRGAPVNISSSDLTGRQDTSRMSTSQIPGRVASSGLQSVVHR
Procedure: as §1, §2, §3

IC50 [1] [nM] | IC50 [2] [nM] | SMILES
1.5 | 0.3 | O=C(Nc1cn2nc(-c3c(-c4ccc(F)cc4)nn4c3CN(CC(F)F)CC4)ccc2n1)c1ccnc(F)c1 [Example 32, N-(6-(5-(2,2-Difluoroethyl)-2-(4-fluorophenyl)-4,5,6,7-tetrahydropyrazolo[1,5-a]pyrazin-3-yl)imidazo[1,2-b]pyridazin-2-yl)-2-fluoroisonicotinamide]
13.9 | 2 | O=C(Nc1cn2nc(-c3c(-c4ccc(F)cc4)nn4c3CN(C(=O)NC3CCCC3)CC4)ccc2n1)c1ccnc(F)c1 [Example 44, N-Cyclopentyl-3-(2-(2-fluoroisonicotinamido)imidazo [1,2-b]pyridazin-6-yl)-2-(4-fluorophenyl)-6,7-dihydropyrazolo[1,5-a]pyrazine-5(4H)-carboxamide]
3 | 0.2 | O=C(Nc1cn2nc(-c3c(-c4ccc(F)cc4)nn4c3CN(C(=O)c3cccnc3)CC4)ccc2n1)c1ccnc(F)c1 [Example 21, 2-Fluoro-N-(6-(2-(4-fluorophenyl)-5-nicotinoyl-4,5,6,7-tetrahydropyrazolo[1,5-a]pyrazin-3-yl)imidazo[1,2-b]pyridazin-2-yl) isonicotinamide]
1.7 | 0.2 | O=C(Nc1cn2nc(-c3c(-c4ccc(F)cc4)nn4c3COCC4)ccc2n1)c1ccnc(-c2cccnc2)c1 [Example 57, N-(6-(2-(4-Fluorophenyl)-6,7-dihydro-4H-pyrazolo[5,1-c][1,4]oxazin-3-yl)imidazo[1,2-b]pyridazin-2-yl)-[2,3′-bipyridine]-4-carboxamide]
1.3 | 0.3 | O=C(Nc1cn2nc(-c3c(-c4ccc(F)cc4)nn4c3CNCC4)ccc2n1)c1ccnc(N2CCOCC2)c1 [Example 4, N-(6-(2-(4-Fluorophenyl)-4,5,6,7-tetrahydropyrazolo[1,5-a]pyrazin-3-yl)imidazo[1,2-b]pyridazin-2-yl)-2-morpholinoisonicotinamide]
2.3 | 0.3 | O=C(Nc1cn2nc(-c3c(-c4ccc(F)cc4)nn4c3CNCC4)ccc2n1)c1ccnc(-c2cccnc2)c1 [Example 6, N-(6-(2-(4-Fluorophenyl)-4,5,6,7-tetrahydropyrazolo[1,5-a]pyrazin-3-yl)imidazo[1,2-b]pyridazin-2-yl)-[2,3′-bipyridine]-4-carboxamide]
27.3 | 3.8 | O=C(Nc1cn2nc(-c3c(-c4ccc(F)cc4)noc3C3CCOCC3)ccc2n1)c1ccnc(N2CCOCC2)c1 [Example 70, N-(6-(3-(4-Fluorophenyl)-5-(tetrahydro-2H-pyran-4-yl)isoxazol-4-yl)imidazo[1,2-b]pyridazin-2-yl)-2-morpholinoisonicotinamide]
0.7 | 0.2 | O=C(Nc1cn2nc(-c3c(-c4ccc(F)cc4)nn4c3CN(C(=O)CC(F)(F)F)CC4)ccc2n1)c1ccnc(F)c1 [Example 15, 2-Fluoro-N-(6-(2-(4-fluorophenyl)-5-(3,3,3-trifluoropropanoyl)-4,5,6,7-tetrahydropyrazolo [1,5-a]pyrazin-3-yl)imidazo[1,2-b]pyridazin-2-yl)isonicotinamide]
6 | 0.4 | O=C(Nc1cn2nc(-c3c(-c4ccc(F)cc4)nn4c3CN(C3CCC3)CC4)ccc2n1)c1ccnc(F)c1 [Example 29, N-(6-(5-Cyclobutyl-2-(4-fluorophenyl)-4,5,6,7-tetrahydropyrazolo[1,5-a]pyrazin-3-yl)imidazo[1,2-b]pyridazin-2-yl)-2-fluoroisonicotinamide]
5.1 | 0.5 | O=C(Nc1cn2nc(-c3c(-c4ccc(F)cc4)nn4c3CNCC4)ccc2n1)c1ccncc1 [Example 3, N-(6-(2-(4-Fluorophenyl)-4,5,6,7-tetrahydropyrazolo[1,5-a]pyrazin-3-yl)imidazo[1,2-b]pyridazin-2-yl)isonicotinamide]
7.3 | 0.7 | O=C(Nc1cn2nc(-c3c(-c4ccc(F)cc4)nn4c3CN(C(=O)Nc3ccncc3)CC4)ccc2n1)c1ccnc(F)c1 [Example 49, 3-(2-(2-Fluoroisonicotinamido)imidazo[1,2-b]pyridazin-6-yl)-2-(4-fluorophenyl)-N-(pyridin-4-yl)-6,7-dihydropyrazolo[1,5-a]pyrazine-5(4H)-carboxamide]
7.3 | 0.4 | CN1CCn2nc(-c3ccc(F)cc3)c(-c3ccc4nc(NC(=O)c5ccnc(F)c5)cn4n3)c2C1 [Example 26, 2-Fluoro-N-(6-(2-(4-fluorophenyl)-5-methyl-4,5,6,7-tetrahydropyrazolo [1,5-a]pyrazin-3-yl)imidazo[1,2-b]pyridazin-2-yl)isonicotinamide]
6.5 | 1 | CC(C)OC(=O)N1CCn2nc(-c3ccc(F)cc3)c(-c3ccc4nc(NC(=O)c5ccnc(F)c5)cn4n3)c2C1 [Example 34, Isopropyl 3-(2-(2-fluoroisonicotinamido)imidazo[1,2-b]pyridazin-6-yl)-2-(4-fluorophenyl)-6,7-dihydropyrazolo[1,5-a] pyrazine-5(4H)-carboxylate]
5.6 | 0.5 | O=C(Nc1cn2nc(-c3c(-c4ccc(F)cc4)nn4c3CN(C(=O)c3ccc(F)c(F)c3)CC4)ccc2n1)c1ccnc(F)c1 [Example 18, N-(6-(5-(3,4-Difluorobenzoyl)-2-(4-fluorophenyl)-4,5,6,7-tetrahydropyrazolo[1,5-a]pyrazin-3-yl)imidazo[1,2-b]pyridazin-2-yl)-2-fluoroisonicotinamide]
24 | 1.6 | O=C(Nc1cn2nc(-c3c(-c4ccc(F)cc4)nn4c3CN(C(=O)NC3CCCCC3)CC4)ccc2n1)c1ccnc(F)c1 [Example 43, N-Cyclohexyl-3-(2-(2-fluoroisonicotinamido)imidazo [1,2-b]pyridazin-6-yl)-2-(4-fluorophenyl)-6,7-dihydropyrazolo[1,5-a]pyrazine-5(4H)-carboxamide]
3.1 | 0.6 | CC(C)C(=O)N1CCn2nc(-c3ccc(F)cc3)c(-c3ccc4nc(NC(=O)c5ccnc(F)c5)cn4n3)c2C1 [Example 22, 2-Fluoro-N-(6-(2-(4-fluorophenyl)-5-isobutyryl-4,5,6,7-tetrahydropyrazolo[1,5-a]pyrazin-3-yl)imidazo[1,2-b]pyridazin-2-yl) isonicotinamide]
1.3 | 0.4 | O=C(Nc1cn2nc(-c3c(-c4ccc(F)cc4)nn4c3CCCC4)ccc2n1)c1ccnc(F)c1 [Example 62, 2-Fluoro-N-(6-(2-(4-fluorophenyl)-4,5,6,7-tetrahydropyrazolo[1,5-a]pyridin-3-yl)imidazo[1,2-b]pyridazin-2-yl)isonicotinamide]
4 | 0.3 | O=C(Nc1cn2nc(-c3c(-c4ccc(F)cc4)nn4c3COCC4)ccc2n1)c1cc(F)nc(F)c1 [Example 56, 2,6-Difluoro-N-(6-(2-(4-fluorophenyl)-6,7-dihydro-4H-pyrazolo[5,1-c][1,4]oxazin-3-yl)imidazo[1,2-b]pyridazin-2-yl) isonicotinamide]
137 | 19.5 | O=C(Nc1cn2nc(-c3c(-c4ccc(F)cc4)nn4ccccc34)ccc2n1)c1cc(F)nc(F)c1 [Example 61, 2,6-Difluoro-N-(6-(2-(4-fluorophenyl)pyrazolo[1,5-a]pyridin-3-yl)imidazo[1,2-b]pyridazin-2-yl)isonicotinamide]
2.7 | 0.2 | Nc1cc(C(=O)Nc2cn3nc(-c4c(-c5ccc(F)cc5)nn5c4COCC5)ccc3n2)ccn1 [Example 58, 2-Amino-N-(6-(2-(4-fluorophenyl)-6,7-dihydro-4H-pyrazolo[5,1-c][1,4]oxazin-3-yl)imidazo[1,2-b]pyridazin-2-yl) isonicotinamide]
27.9 | 1.4 | O=C(Nc1cn2nc(-c3c(-c4ccc(F)cc4)noc3C3CCOCC3)ccc2n1)c1ccnc(F)c1 [Example 69, 2-Fluoro-N-(6-(3-(4-fluorophenyl)-5-(tetrahydro-2H-pyran-4-yl)isoxazol-4-yl)imidazo[1,2-b]pyridazin-2-yl)isonicotinamide]

SMILES | IC50 [1] [nM] | IC50 [2] [nM]
Cc1nc(-c2ccncc2)sc1C(=O)Nc1cn2nc(-c3c(-c4ccc(F)cc4)nn4c3CNCC4)ccc2n1 [Example 2, N-(6-(2-(4-Fluorophenyl)-4,5,6,7-tetrahydropyrazolo[1,5-a]pyrazin-3-yl)imidazo[1,2-b]pyridazin-2-yl)-4-methyl-2-(pyridin-4-yl)thiazole-5-carboxamide] | 2.4 | 0.2
